Patent US20110294736A1, “COMPOUNDS AND METHODS FOR THE TREATMENT OF AUTOIMMUNE AND INFLAMMATORY DISEASE” (THE PROVOST, FELLOWS AND SCHOLARS OF THE HOLY AND UNDIVIDED …, priority 2008, published 2011)

Assays:
[1] = tested on: experimental autoimmune encephalomyelitis (EAE) in C57BL/6 mice; test: EAE induced with MOG35-55/CFA and pertussis toxin, clinical score and body weight; type: in vivo
Description: EAE was induced in C57BL/6 mice by subcutaneous (s.c) injection with 150 μg of MOG35-55 in CFA supplemented with 4 mg/ml H37 Ra M. tuberculosis on day 0. All mice were injected intra-peritoneally (i.p) with Pertussis toxin (PT) on days 0 and 2. One group of mice were untreated and the second group were given Tri-DAP (100 μg/mouse) on day 0 in MOG/CFA emulsion and again on days 1, 2 and every 2 days thereafter. Clinical scores were assessed daily and body weights were recorded. Disease severity was graded as follows: grade 0: normal, grade 1: limp tail, grade 2: wobbly gait; grade 3: hind limb weakness; grade 4: hind limb paralysis; grade 5: tetraparalysis/death. † indicates control mice were sacrificed due to severity of EAE disease.

[2] = tested on: antigen presenting cells (PECs) activating MOG-specific T cells; test: IFN-γ of MOG-specific T cells cultured with irradiated PECs of treated mice as antigen presenting cells; type: in vivo; details: TriDAP 100 μg/mouse/day i.p. 5 days vs PBS; MOG 20 μg/ml; 72 hours
Description: Mice were treated with either PBS or TriDAP (100 μg/mouse/day i.p.) for 5 days. Peritoneal exudate stimulator cells (PECs) were irradiated and used as antigen presenting cells (APC) for MOG-specific T cells. T cells from mice immunized with MOG (Myelin oligodendrocyte glycoprotein) and CFA (1×10^6/ml) were culture with PECs (1×10^6/ml) and MOG (20 μg/ml). Supernatants were collected after 72 hours and IFN-γ concentrations were quantified by ELISA.

[3] = tested on: dendritic cells activating Th17 cells; test: IL-17 of CD4 T cells cultured with LPS-stimulated dendritic cells with and without TriDAP; type: cell-based, mice; details: TriDAP 100 μg/ml; LPS 10 or 100 ng/ml; KLH 20 μg/ml; 72 hours
Description: CD4 T cells from mice immunized with MOG and LPS, were cultured in vitro with dendritic cells stimulated with LPS (10 or 100 ng/ml) with and without TriDAP (100 μg/ml) in the presence of KLH (20 μg/ml). Supernatants were collected after 72 hours and IL-17 concentrations were quantified by ELISA. *P<0.05, ***P<0.001, with and without TriDAP.

[4] = tested on: IL-17-expressing and IFN-γ-expressing T cells in the brains of mice with EAE; test: Intracellular IFN-γ and IL-17 staining (flow cytometry) of brain mononuclear cells of EAE mice; type: in vivo; details: CD3+, CD3+ CD4+ and CD3+ CD4− cells; 12 days post EAE induction; PMA/ionomycin
Description: Mononuclear cells were isolated from the brains of control EAE or Tri-DAP treated EAE mice 12 days post EAE induction. Cells were restimulated overnight with PMA/ionomycin and incubated with Brefeldin A. Cells were stained with anti-CD3 (FIG. 4), or anti-CD3 and anti-CD4 (FIGS. 5 and 6). Cells were then fixed and permeabilized, stained intracellularly with anti-IFN-γ and anti-IL-17 and analysed by flow cytometry.

BMDC = test: IL-12p40, IL-23, IL-12p70 and IL-10 ELISA in BMDC with p38 or ERK inhibitor, Tri-DAP and LPS or CpG; type: cell-based, murine
Description: BMDC (1×10^6) were pretreated with the p38 inhibitor, SB203580 (5 μM—FIGS. 10-11), or the ERK inhibitor UO126 (5 μM—FIGS. 12-13) for 30 minutes prior to stimulation with Tri-DAP (100 μg/ml) or medium alone. After 2 hours the cells were then stimulated with LPS (100 ng/ml—FIGS. 10 and 12), with the TLR agonist CpG (5 μg/ml—FIGS. 11 and 13) or with medium alone. Supernatants were collected after 24 hours and IL-12p40, IL-23, IL-12p70 and IL-10 concentrations were quantified by ELISA.

NF-κB = details: higher than iE-DAP; previously shown; cited from earlier work
EBI3 mRNA = EBI3 mRNA (real time PCR) in inguinal lymph nodes 72 hours post EAE induction; type: in vivo; details: Tri-DAP 100 μg/mouse days 0, 1, 2, vs control mice
Description: EAE was induced in C57BL/6 mice by subcutaneous injection with 150 μg of MOG35-55 in CFA supplemented with 4 mg/ml H37 Ra M. tuberculosis on day 0. All mice were injected i.p with PT on days 0 and 2. One group of mice were untreated and the second group were given Tri-DAP (100 μg/mouse) given on day 0 in MOG/CFA emulsion and again on days 1 and 2. Three mice from each group were sacrificed 72 hours post EAE induction. The inguinal lymph nodes were removed and collected in Trizol. EBI3 mRNA was evaluated by real time PCR normalized to 18S rRNA. Data are shown as fold induction over naïve C57BL/6 inguinal lymph nodes (FIG. 7).

[5] = tested on: Peritoneal exudate cells (PECs); test: TLR agonist induced cytokines (ELISA) of peritoneal exudate cells from treated mice; type: in vivo; details: TriDAP 100 μg/mouse/day i.p. 5 days vs PBS; LPS, CpG or Pam3Csk; 24 hours
Description: Mice were treated with either PBS or TriDAP (100 μg/mouse/day i.p.) for 5 days. Peritoneal exudate cells (PECs; 1×10^6/ml) were stimulated with medium alone (control), or with a Toll-like Receptor agonist selected from the following: the TLR4 agonist LPS (lipopolysaccharide) (100 ng/ml), the TLR9 agonist CpG (5 μg/ml), or the TL2 agonist Pam3Csk (500 ng/ml). Supernatants were collected after 24 hours and cytokine concentrations were quantified by ELISA.

EAE in SJL mice = test: SJL mouse relapsing-remitting EAE model (PLP/CFA, PT), clinical score; type: in vivo; details: TriDAP 100 μg/mouse every 2 days from day 12, vs PBS, mean of 5-6 mice per group
Text: EAE (experimental autoimmune encephalomyelitis) was induced in SJL mice by immunization with […] (PLP) in complete Freund's adjuvant (CFA) followed by Bordetella pertussis toxin (PT). SJL mice were developed by James Lambert at The Jackson Laboratory in 1955 from three different sources of Swiss Webster mice. The strain is characterized by its susceptibility to experimental autoimmune encephalomyelitis (EAE) for multiple sclerosis research, and therefore provides an improved model (over the MOG (myelin oligodendrocyte glycoprotein) model) for assessing the therapeutic potential of compounds. Mice were treated with PBS (control) or TriDAP (100 μg/mouse) every 2 days from day 12. Clinical scores were assessed daily and body weights were recorded. Disease severity was graded as follows: grade 0: normal, grade 1: limp tail, grade 2: wobbly gait; grade 3: hind limb weakness; grade 4: hind limb paralysis; grade 5: tetraparalysis/death. † indicates control mice were sacrificed due to severity of EAE disease.

[6] = Tri-DAP 100 μg/ml pretreatment, LPS 100 ng/ml or CpG 5 μg/ml, 24 hours

## C[C@H](N)C(=O)N[C@H](CCC(=O)N[C@@H](CCC[C@@H](N)C(=O)O)C(=O)O)C(=O)O [Tri-DAP, L-alanyl-γ-D-glutamyl-meso-diaminopimelic acid]
[1]; C57BL/6 EAE mice, Tri-DAP 100 μg/mouse vs untreated control
  weight loss: dramatic weight loss in the control mice when compared to the Tri-DAP treated mice
[1]; C57BL/6 mice, Tri-DAP 100 μg/mouse day 0 in MOG/CFA emulsion, days 1, 2 and every 2 days, untreated mice 5-6 days
  first clinical signs of EAE disease: 11 days post induction
[1]; C57BL/6 mice, Tri-DAP 100 μg/mouse, untreated peaked at 3.5-4 by day 12
  severity of EAE disease (clinical score): lower than that observed in the untreated control mice
[2]
  IFN-gamma secreted by antigen-specific T cells stimulated with APC of treated mice: less
[3]
  ability of dendritic cells to activate IL-17 production by CD4 T cells: significant reduction
[4]
  IFN-γ production by brain T cells: suppressed
  IL-17 production by brain T cells: suppressed
BMDC; [6]
  LPS and CpG production of IL-12p40: enhances
  LPS and CpG production of IL-12p70: enhances
  LPS and CpG production of IL-23: enhances
BMDC; Tri-DAP 100 μg/ml, LPS 100 ng/ml or CpG 5 μg/ml, 24 hours
  LPS and CpG induced IL-10 production: enhanced
BMDC; p38 inhibitor SB203580 5 μM
  enhancement of LPS and CpG induced IL-10 production when p38 is inhibited: completely abolished
  synergy of Tri-DAP with LPS or CpG (IL-12 family), dependence on p38: partially dependent on p38
NF-κB
  ability to activate NF-κB relative to iE-DAP: 3 fold
EBI3 mRNA
  EBI3 gene expression in inguinal lymph nodes: strong fold increase
[5]
  IL-10 secreted by PEC after re-stimulation with TLR agonists: higher concentrations
  TGF-beta secreted by PEC after re-stimulation with TLR agonists: higher concentrations
EAE in SJL mice
  clinical scores: reduction
